Measured values taken from patent US8580842B2, “Heteroaryl-substituted 1,3-dihydroindol-2-one derivatives and medicaments containing them” (Abbott GmbH & Co. KG, priority 2003, dated 2013).
Structures can show the parent of a compound that is named as a salt.

Molecular target: T1, human V1b receptors (Homo sapiens, UniProt P47901)
T1 construct: expressed in transfected cells; host or cells: CHO-K1 (membrane preparation V1b-3H2)
T1 sequence (P47901 1-424): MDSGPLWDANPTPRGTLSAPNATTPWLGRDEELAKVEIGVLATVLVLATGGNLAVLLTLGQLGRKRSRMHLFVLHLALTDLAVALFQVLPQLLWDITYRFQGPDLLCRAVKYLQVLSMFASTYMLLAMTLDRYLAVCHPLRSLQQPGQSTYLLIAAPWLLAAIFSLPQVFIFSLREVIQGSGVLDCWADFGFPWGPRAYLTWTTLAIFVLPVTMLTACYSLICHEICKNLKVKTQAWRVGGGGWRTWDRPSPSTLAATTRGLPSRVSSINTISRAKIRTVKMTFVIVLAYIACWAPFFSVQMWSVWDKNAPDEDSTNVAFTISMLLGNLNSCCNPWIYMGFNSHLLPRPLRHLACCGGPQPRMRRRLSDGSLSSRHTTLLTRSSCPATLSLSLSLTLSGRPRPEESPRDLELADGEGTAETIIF
Assay: Vasopressin V1b receptor binding assay
Conditions: membranes from CHO-K1 cells expressing human V1b receptors, displacement of 1.5 nM 3H-AVP; read-out: Binding affinity for the vasopressin V1b receptor
Description: Vasopressin V1b Receptor Binding Assay
The binding of the compounds of this invention to the vasopressin V1b receptor was determined with the following assay:
Compounds were dissolved in a concentration of 10^−2 M or 10^−3 M in DMSO. Further dilutions were performed with water.
The procedure for the binding assay was based on the method of Tahara et al. (Tahara A et al., Brit. J. Pharmacol. 125, 1463-1470 (1998)). Assays (0.250 ml) consisted of membranes (58 μg protein) from CHO-K1 cells permanently expressing human V1b receptors (preparation V1b-3H2, containing protease inhibitors, Roche complete Mini #1836170), 1.5 nM ^3H-AVP (8-Arg-vasopressin, NET 800) in incubation buffer (total binding) and different concentrations of test compound (displacement). Non-specific binding was defined with 10^−6 M AVP. Assays were performed in triplicate.
Incubation buffer: 50 mM Tris, 10 mM MgCl2, 0.1% BSA adjusted to pH 7.4 with HCl.
After incubation, 60 min at room temperature, bound and free radioligand was separated by filtration under vacuum through Whatman GF/B glass fibre mats using a Skatron cell harvester 7000.
Liquid scintillation counting was performed in beta-counters, Tricarb model 2000 or 2200CA (Packard). Dpm were calculated by a programme with standardisation using a standard quench series.
Evaluation of binding parameters was performed by non-linear regression analysis with SAS. The strategy of this program is similar to the program LIGAND described by Munson and Rodbard (Munson PJ and Rodbard D, Analytical Biochem 107, 220-239 (1980)).

| SMILES | Ki [nM] |
| --- | --- |
| COc1ccc(S(=O)(=O)N2C(=O)C(c3nc4ccccc4s3)(N3C[C@H](O)C[C@H]3C(=O)N(C)C)c3cc(Cl)ccc32)c(OC)c1 (single isomer, unassigned) [Example 2] | < 50 |
| COc1ccc(S(=O)(=O)N2C(=O)C(c3cnc(OC)nc3OC)(N3C[C@H](O)C[C@H]3C(=O)N(C)C)c3cc(Cl)ccc32)c(OC)c1 (single isomer, unassigned) [Example 3] | < 50 |
| COc1ccc(S(=O)(=O)N2C(=O)C(c3cccnc3OC)(N3C[C@H](O)C[C@H]3C(=O)N(C)C)c3cc(Cl)ccc32)c(OC)c1 (single isomer, unassigned) [Example 6] | 50 to 500 |
| COc1ccc(S(=O)(=O)N2C(=O)C(c3ncccc3OC)(N3C[C@H](O)C[C@H]3C(=O)N(C)C)c3cc(Cl)ccc32)c(OC)c1 (single isomer, unassigned) [Example 9] | < 50 |
| COc1ccc(S(=O)(=O)N2C(=O)C(c3cnccc3OC)(N3C[C@H](O)C[C@H]3C(=O)N(C)C)c3cc(Cl)ccc32)c(OC)c1 (single isomer, unassigned) [Example 10] | < 50 |
| COc1ccc(S(=O)(=O)N2C(=O)C(c3nccnc3OC)(N3C[C@H](O)C[C@H]3C(=O)N(C)C)c3cc(Cl)ccc32)c(OC)c1 (single isomer, unassigned) [Example 13] | < 50 |
| COc1ccccc1C1(N2C[C@H](O)C[C@H]2C(=O)N(C)C)C(=O)N(S(=O)(=O)c2cccc3cccnc23)c2ccc(Cl)cc21 (single isomer, unassigned) [Example 28] | < 50 |
| COc1ccccc1C1(N2C[C@H](O)C[C@H]2C(=O)N(C)C)C(=O)N(S(=O)(=O)c2ccc(Cl)s2)c2ccc(Cl)cc21 (single isomer, unassigned) [Example 31] | < 50 |
| COc1ccccc1C1(N2C[C@H](O)C[C@H]2C(=O)N(C)C)C(=O)N(S(=O)(=O)c2sc(Cl)cc2Br)c2ccc(Cl)cc21 (single isomer, unassigned) [Example 32] | 50 to 500 |
| COc1ccccc1C1(N2C[C@H](O)C[C@H]2C(=O)N(C)C)C(=O)N(S(=O)(=O)c2ccccn2)c2ccc(Cl)cc21 (single isomer, unassigned) [Example 47] | < 50 |
| COc1ccccc1C1(N2C[C@H](O)C[C@H]2C(=O)N(C)C)C(=O)N(S(=O)(=O)c2ccc(Br)cn2)c2ccc(Cl)cc21 (single isomer, unassigned) [Example 48] | < 50 |
| COc1ccccc1C1(N2C[C@H](O)C[C@H]2C(=O)N(C)C)C(=O)N(S(=O)(=O)c2ccc(C)cn2)c2ccc(Cl)cc21 (single isomer, unassigned) [Example 51] | < 50 |
| COc1ccccc1C1(N2C[C@H](O)C[C@H]2C(=O)N(C)C)C(=O)N(S(=O)(=O)c2ccc(Cl)cn2)c2ccc(Cl)cc21 (single isomer, unassigned) [Example 52] | < 50 |
| COc1ccccc1C1(N2C[C@H](O)C[C@H]2C(=O)N(C)C)C(=O)N(S(=O)(=O)c2ncc(Br)cc2C)c2ccc(Cl)cc21 (single isomer, unassigned) [Example 53] | < 50 |
| COc1ccccc1C1(N2C[C@H](O)C[C@H]2C(=O)N(C)C)C(=O)N(S(=O)(=O)c2ccc(N3CCOCC3)nc2)c2ccc(Cl)cc21 (single isomer, unassigned) [Example 56] | < 50 |
| COc1ccc(S(=O)(=O)N2C(=O)C(N[C@@H](C)C(=O)N(C)C)(c3cccnc3OC)c3cc(Cl)ccc32)c(OC)c1 (single isomer, unassigned) [Example 221] | < 50 |
| COc1ccc(S(=O)(=O)N2C(=O)C(c3ncccc3C)(N3C[C@H](O)C[C@H]3C(=O)N(C)C)c3cc(Cl)ccc32)c(OC)c1 (single isomer, unassigned) [Example 222] | < 50 |
| COc1ccc(S(=O)(=O)N2C(=O)C(c3cccnc3OC)(N3C[C@H](O)C[C@H]3C(=O)N(C)C)c3ccccc32)c(OC)c1 (single isomer, unassigned) [Example 225] | 50 to 500 |
| COc1ccc(S(=O)(=O)N2C(=O)C(c3cccnc3OC)(N3CCC[C@H]3C(=O)N(C)C)c3ccccc32)c(OC)c1 (single isomer, unassigned) [Example 226] | 50 to 500 |
| COc1ccc(S(=O)(=O)N2C(=O)C(c3cccnc3OC)(N3CCC[C@H]3C(=O)N(C)C)c3cc(Cl)ccc32)c(OC)c1 (single isomer, unassigned) [Example 227] | < 50 |
| COc1ccc(S(=O)(=O)N2C(=O)C(c3cccnc3OC)(N3C[C@H](O)C[C@H]3C(=O)N(C)C)c3cc(OC)ccc32)c(OC)c1 (single isomer, unassigned) [Example 230, fumarate] | < 50 |
| COc1ccc(S(=O)(=O)N2C(=O)C(c3cccnc3OC)(N3C[C@H](O)C[C@H]3C(=O)N(C)C)c3cc(C#N)ccc32)c(OC)c1 (single isomer, unassigned) [Example 232] | < 50 |
| COc1ccc(S(=O)(=O)N2C(=O)C(c3ccncc3OC)(N3C[C@H](O)C[C@H]3C(=O)N(C)C)c3cc(Cl)ccc32)c(OC)c1 (single isomer, unassigned) [Example 234] | < 50 |

Second part, the compound after the results:

| Ki [nM] | SMILES |
| --- | --- |
| < 50 | COc1ccc(S(=O)(=O)N2C(=O)C(c3cccnc3OC)(N3CC=C[C@H]3C(=O)N(C)C)c3cc(Cl)ccc32)c(OC)c1 (mixture of isomers) [Example 247, (S)-1-[5-Chloro-1-(2,4-dimethoxy-benzenesulfonyl)-3-(2-methoxy-pyridin-3-yl)-2-oxo-2,3-dihydro-1H-indol-3-yl]-2,5-dihydro-1H-pyrrole-2-carboxylic acid dimethylamide] |
| < 50 | COC(=O)[C@@H]1CCCN1C1(c2cccnc2OC)C(=O)N(S(=O)(=O)c2ccc(OC)cc2OC)c2ccc(Cl)cc21 (mixture of isomers) [Example 248, (S)-1-[5-Chloro-1-(2,4-dimethoxy-benzenesulfonyl)-3-(2-methoxy-pyridin-3-yl)-2-oxo-2,3-dihydro-1H-indol-3-yl]-pyrrolidine-2-carboxylic acid methyl ester] |
| < 50 | COc1ccc(S(=O)(=O)N2C(=O)C(c3cnc(OC)nc3OC)(N3C[C@H](O)C[C@H]3C(=O)N(C)C)c3cc(Cl)ccc32)cc1 (single isomer, unassigned) [Example 236] |
| < 50 | COc1ccc(S(=O)(=O)N2C(=O)C(c3cccnc3OC)(N3CCCC[C@H]3C(=O)N(C)C)c3cc(Cl)ccc32)c(OC)c1 (single isomer, unassigned) [Example 237] |
| < 50 | COc1ccc(S(=O)(=O)N2C(=O)C(c3ccc(OC)nc3OC)(N3C[C@H](O)C[C@H]3C(=O)N(C)C)c3cc(Cl)ccc32)c(OC)c1 (single isomer, unassigned) [Example 238] |
| < 50 | CCOc1ncccc1C1(N2C[C@H](O)C[C@H]2C(=O)N(C)C)C(=O)N(S(=O)(=O)c2ccc(OC)cc2OC)c2ccc(Cl)cc21 (single isomer, unassigned) [Example 239] |
| < 50 | COc1ccc(S(=O)(=O)N2C(=O)C(c3cccnc3OC)(N3C[C@H](O)C[C@H]3C(=O)N(C)C)c3cc(Cl)ccc32)cc1 (single isomer, unassigned) [Example 240] |
| 50 to 500 | COc1ccccc1S(=O)(=O)N1C(=O)C(c2cccnc2OC)(N2C[C@H](O)C[C@H]2C(=O)N(C)C)c2cc(Cl)ccc21 (single isomer, unassigned) [Example 241] |
| < 50 | COc1ccc(S(=O)(=O)N2C(=O)C(c3cccnc3OC)(N3C[C@H](O)C[C@H]3C(=O)N(C)C)c3cc(C#N)ccc32)cc1 (single isomer, unassigned) [Example 242] |
| < 50 | COc1ccc(S(=O)(=O)N2C(=O)C(c3nccnc3OC)(N3C[C@H](O)C[C@H]3C(=O)N(C)C)c3cc(I)ccc32)c(OC)c1 (single isomer, unassigned) [Example 243] |
| < 50 | COc1ccc(S(=O)(=O)N2C(=O)C(c3cccnc3OC)(N3C[C@H](O)C[C@H]3C(=O)N(C)C)c3cc(OC(F)(F)F)ccc32)c(OC)c1 (single isomer, unassigned) [Example 245] |
| < 50 | COc1ccc(S(=O)(=O)N2C(=O)C(c3cccnc3OC)(N3C[C@H](F)C[C@H]3C(=O)N(C)C)c3cc(Cl)ccc32)c(OC)c1 (single isomer, unassigned) [Example 246] |
| < 50 | COc1ccccc1C1(N2C[C@H](O)C[C@H]2C(=O)N(C)C)C(=O)N(S(=O)(=O)c2cc(C)ccn2)c2ccc(Cl)cc21 (single isomer, unassigned) [Example 252] |
| < 50 | COc1ccccc1C1(N2C[C@H](O)C[C@H]2C(=O)N(C)C)C(=O)N(S(=O)(=O)c2cccc(C)n2)c2ccc(Cl)cc21 (single isomer, unassigned) [Example 253] |
